Test results as given in a flash point compilation (Sun et al. 2020).

Compound | flash point
Nc1ccccc1 [Aniline] | 70.00 °C
CCCCCCCC(=O)O [Octanoic acid] | 132.00 °C
Cc1ccccc1 [Toluene] | 4.40 °C

remark: another data set of the same source

Compound | flash point
CO[Si](OC)(OC)OC [Tetramethoxysilane] | 21.00 °C
C[Si](C)(C)C [Tetramethylsilane] | -28.00 °C
Cl[Si](Cl)(Cl)CCc1ccccc1 [Trichloro(2-phenylethyl)silane] | 91.00 °C
FC(F)(F)CC[Si](Cl)(Cl)Cl [Trichloro(3,3,3-trifluoropropyl)silane] | 15.00 °C
ClC[Si](Cl)(Cl)Cl [Trichloro(Chloromethyl) silane] | 69.00 °C
Clc1cccc([Si](Cl)(Cl)Cl)c1Cl [Trichloro(dichlorophenyl)silane] | 146.00 °C
CC(C)[SiH](C(C)C)C(C)C [Triisopropylsilane] | 37.00 °C
CO[SiH](OC)OC [Trimethoxysilane] | -9.00 °C
C[Si](C)(C)Br [Trimethyl bromosilane] | -3.00 °C
CCCO[Si](C)(C)C [Trimethyl-n-propoxysilane] | 10.00 °C
C[Si](C)(C)F [Trimethylfluorosilane] | -35.00 °C
C[Si](C)(C)N=C=S [Trimethylsilylisothiocyanate] | 35.00 °C
CN(C)[SiH](N(C)C)N(C)C [Tris(dimethylamino)silane] | 25.00 °C
C[Si](C)(C)O[SiH](O[Si](C)(C)C)O[Si](C)(C)C [Tris(trimethylsiloxy)silane] | 50.00 °C
C=C[Si](C)(CC)CC [Vinyldiethylmethylsilane] | 15.00 °C
C=C[Si](OC(C)=O)(OC(C)=O)OC(C)=O [Vinyltriacetoxysilane] | 88.00 °C
C=C[Si](OCC)(OCC)OCC [Vinyltriethoxysilane] | 34.00 °C

Compound | flash point
C=C[Si](OCCOC)(OCCOC)OCCOC [Vinyltris(methoxyethoxy)silane] | 80.00 °C
C[Si](C)(C)CCOCCl [[2-(chloromethoxy)ethyl]trimethylsilane] | 46.00 °C
CCO[Si](CCCS)(OCC)OCC [[3-(mercapto)propyl]triethoxysilane] | 87.78 °C
CCCC[Si](Cl)(Cl)Cl [n-Butyltrichlorosilane] | 54.00 °C
CCCCCCCCCC[Si](C)(Cl)Cl [n-Decylmethyldichlorosilane] | 120.00 °C
CCCCCCCCCCCC[Si](Cl)(Cl)Cl [n-Dodecyltrichlorosilane] | 162.00 °C
CCCCCCCC[Si](C)(C)Cl [n-Octyldimethylchlorosilane] | 97.00 °C
CCCCCCCC[Si](Cl)(Cl)Cl [n-Octyltrichlorosilane] | 96.00 °C
CCC[Si](C)(Cl)Cl [n-Propylmethyldichlorosilane] | 27.00 °C
CCC[Si](OC)(OC)OC [n-Propyltrimethoxysilane] | 25.00 °C
C[Si](C)(C)c1ccc(Cl)cc1 [p-Chlorophenyltrimethylsilane] | 49.00 °C
CCCC(C)[Si](Cl)(Cl)Cl (stereo not drawn) [sec-Amyltrichlorosilane] | 30.00 °C
CC(C)(C)O[Si](C)(C)C [t-Butoxytrimethylsilane] | 14.00 °C
CC(C)(C)[Si](C)(C)Cl [t-Butyldimethylchlorosilane] | 22.00 °C
CC(C)(C)[Si](C)(C)O [t-Butyldimethylsilanol] | 45.00 °C
CC(C)(C)[Si](Cl)(Cl)Cl [t-Butyltrichlorosilane] | 21.00 °C

remark: another data set of the same source

Compound | flash point
Cc1ccc(C)c(C)c1 [1,2,4-TRIMETHYL BENZENE] | 45.5 °C
CCc1ccccc1CC [1,2-Diethylbenzene] | 57.2 °C
COCCOC [1,2-Dimethoxyethane] | -1.6 °C
NCCN [1,2-Ethanediamine] | 38 °C
Cc1cccc(C)c1 [1,3-Dimethylbenzene] | 25.0 °C
CCc1ccc(CC)cc1 [1,4-Diethylbenzene] | 57 °C
Cc1ccc(C)cc1 [1,4-Dimethylbenzene] | 26 °C
NCCCCCCN [1,6-Hexanediamine] | 81.0 °C
CCC(C)CO (stereo not drawn) [1-Butanol, 2-methyl-] | 43.0 °C
C=CC(C)(C)C [1-Butene, 3,3-dimethyl-] | -31.9 °C
CCCCCCCCCCCCO [1-DODECANOL] | 125 °C
C=CCCCCCCCCCC [1-DODECENE] | 67 °C
C=CCCCCCCCC [1-Decene] | 47.0 °C
C=CCCCC [1-HEXENE] | -31 °C
CCCCCCCS [1-Heptanethiol] | 50.5 °C
C=CCCCCC [1-Heptene] | -8.0 °C
CCCCCCN [1-Hexanamine] | 27.0 °C
CCCCCCS [1-Hexanethiol] | 32.5 °C
CCCCCCCCCO [1-NONANOL] | 95 °C
CCCCCCCCC=O [1-Nonanal] | 63.0 °C
CCCCCCCCCO [1-Nonanol] | 96.0 °C
C=CCCC [1-PENTENE] | -54 °C

Compound | flash point
C=CCCCCCCCCCCCCC [1-Pentadecene] | 112.0 °C
CCCC(C)CO (stereo not drawn) [1-Pentanol, 2-methyl-] | 50.0 °C
C=CC(C)CC (stereo not drawn) [1-Pentene, 3-methyl-] | -27.9 °C
CCCS [1-Propanethiol] | -19.9 °C
CCCCCCCCCCCO [1-UNDECANOL] | 115 °C
CCCCCCCCCCCO [1-Undecanol] | 113.0 °C
CCC(C)(C)C(=O)O [2,2-Dimethylbutyric acid] | 79.0 °C
Cc1ccc(O)c(C)c1 [2,4-Dimethylphenol] | 95.0 °C
Cc1cccc(C)c1O [2,6-Dimethylphenol] | 85.0 °C
CC(C)C(C)O (stereo not drawn) [2-Butanol, 3-methyl-] | 26.0 °C
CC=C(C)C [2-Butene, 2-methyl-] | -44.9 °C
CCCCC(CC)CO (stereo not drawn) [2-Ethylhexanol] | 73 °C
CCCCC(C)O (stereo not drawn) [2-HEXANOL] | 46.2 °C
CCCCCC(C)=O [2-Heptanone] | 39.0 °C
CCCCC(C)O (stereo not drawn) [2-Hexanol] | 45.0 °C
CC(C)CO [2-Methyl-1-propanol] | 29.2 °C
CCC(O)CC [3-PENTANOL] | 27 °C
CCC(C)(O)CC [3-Pentanol, 3-methyl-] | 24.0 °C
CCC(O)CC [3-Pentanol] | 30.0 °C
CCCCCC(=O)CCCCC [6-Undecanone] | 88.4 °C
CCCCCOC(C)=O [Amyl acetate] | 37.0 °C
Nc1ccccc1 [Aniline] | 71.0 °C

Compound | flash point
CNc1ccccc1 [Benzenamine, N-methyl-] | 78 °C
CCCCS [Butanethiol] | 1.0 °C
CCCCC1CCCCC1 [Cyclohexane, butyl-] | 52.5 °C
NC1CCCC1 [Cyclopentanamine] | 11.5 °C
CCC1CCCC1 [Cyclopentane, ethyl-] | -0.0 °C
CCCCCCCCCC(=O)O [Decanoic acid] | 148.0 °C
CC(C)NC(C)C [Diisopropylamine] | -7.0 °C
CNC [Dimethylamine] | -49.9 °C
CCCNCCC [Dipropylamine] | 7.5 °C
CCOCCOCCO [Ethanol, 2-(2-ethoxyethoxy)-] | 90.0 °C
COCCO [Ethanol, 2-methoxy-] | 39.0 °C
CCCCCC#N [HEXANENITRILE] | 47 °C
CCCCCC(C)C [Heptane, 2-methyl-] | 6.0 °C
CCCCC(CC)CC [Heptane, 3-ethyl-] | 23.0 °C
CCCCCCC(=O)O [Heptanoic acid] | 115.0 °C
CCCC(CC)CC [Hexane, 3-ethyl-] | 5 °C
CCCCCC#N [Hexanenitrile] | 43.0 °C
CCCCC(CC)C(=O)O (stereo not drawn) [Hexanoicacid, 2-ethyl-] | 110.0 °C
CN(C)c1ccccc1 [N,N-DIMETHYLANILINE] | 62.0 °C
CN(C)c1ccccc1 [N,N-Dimethylaniline] | 75.0 °C
CCCCCCC(C)CC (stereo not drawn) [Nonane, 3-methyl-] | 46.0 °C
CCCCCC(C)CCC (stereo not drawn) [Nonane, 4-methyl-] | 44.0 °C

Compound | flash point
CCCCC(C)CCCC [Nonane, 5-methyl-] | 39 °C
CCCCCCCC=O [Octanal] | 51.0 °C
CCCCC(C)CCC (stereo not drawn) [Octane, 4-methyl-] | 23.0 °C
CCCCCCCC [Octane] | 14.0 °C
CCCCCCCC(=O)O [Octanoic acid] | 127.0 °C
Oc1ccccc1 [PHENOL] | 80 °C
CCc1ccccc1O [Phenol, 2-ethyl-] | 85.0 °C
CCCOCC [Propane, 1-ethoxy-] | -19.9 °C
CCCOC(C)=O [Propyl acetate] | 10.6 °C
Cc1ccccn1 [Pyridine, 2-methyl-] | 26.0 °C
Cc1ccncc1 [Pyridine, 4-methyl-] | 39.0 °C
Cc1ccccc1 [TOLUENE] | 4.0 °C
CCN(CC)CC [TRIETHYLAMINE] | -15.0 °C
Cc1ccccc1 [Toluene] | 6.0 °C
CCCCCCCCCCCCC [Tridecane] | 90.0 °C
CCN(CC)CC [Triethylamine] | -11.0 °C
CCc1cccc(C)c1 [m-Ethyltoluene] | 38.0 °C
CCC(C)N (stereo not drawn) [sec-BUTYLAMINE] | -28.8 °C
CCC(C)N (stereo not drawn) [sec-Butylamine] | -18.9 °C

remark: another data set of the same source

Compound | flash point
C=CC=CO[Si](C)(C)C [1-(Trimethylsiloxy)-1,3-butadiene] | 25.00 °C
CCCCCC#C[Si](C)(C)C [1-Heptynyltrimethylsilane] | 42.00 °C
